Measurements reported in PMC5374710, “Discovery of the first dual GSK3β inhibitor/Nrf2 inducer. A new multitarget therapeutic strategy for Alzheimer’s disease” (Scientific Reports, 2017).
“And” between values parts separate entries of the source, which are not always exact repeats. Equal entries are not always repeated. Where two headings read alike, the source gives them in different places.

Key:
[1] = biological target: T1, GSK3β (Homo sapiens, UniProt P49841); experiment: GSK3β inhibition, luminescence Kinase-Glo assay; type: biochemical; details: for IC50: four concentrations 0.1, 1, 10, 30 μM, ATP 1 μM, 1 h; for Ki: calculated from IC50 by Cheng-Prusoff equation, Km ATP 2.345 µM, read-out: Ki (apparent equilibrium dissociation constant)
T1 construct: purchased Promega V1991
Procedure: GSK3β inhibitory activity was evaluated using the method developed by Baki[66], with modifications. Compounds were dissolved in assay buffer, containing 40 mM Tris (pH 7.5), 20 mM MgCl2, 0.1 mg/ml BSA (bovine serum albumin) and 50 μM dithiothreitol (DTT) at the desired concentrations. Firstly, 10 μl of enzyme (10 ng) and 10 μl of each compound were mixed for 30 min. Then, 20 μl of a mixture of ATP (1 μM) and GSK3β peptidic substrate were added to each well. The mixture was incubated for 60 min at 30 °C. Thereafter, the remaining ATP concentration was measured with the Kinase-Glo system following instructions from the supplier. Luminescence was measured in an Orion II microplate luminometer (Berthold, Germany) as relative light units (RLU). […] IC50 values were calculated by non-linear regression analysis of individual concentration-response curves using GraphPad Prism 5.0 software (San Diego, CA, USA).
The ability of the compounds to inhibit GSK3β was evaluated using the method developed by Baki^9 with some modifications. The tested compounds were dissolved in assay buffer, containing 40 mM Tris (pH 7.5), 20 mM MgCl2, 0.1 mg/ml BSA (bovine serum albumin) and 50 µM dithiothreitol (DTT), to achieve final reaction concentrations of 0.1, 1, 10 and 30 µM. […] The GSK3β inhibition assay was performed in white 96-well plates, in duplicates. Firstly, 10 µl of enzyme (10 ng) were added to each well, followed by 10 µl of the compounds at the desired concentration. After 30 minutes, 20 µl of a mixture of ATP and GSK3β peptidic substrate were added to each well, achieving a final concentration of 1 µM of ATP and 25 of µM peptidic substrate. The mixture was incubated at 30 °C for 60 minutes. Once the reaction was finished, the remaining ATP concentration was measured by adding 40 µl/well of Kinase-Glo reagent. The luminescence was measured in an Orion II microplate luminometer (Berthold, Germany) as relative light units (RLU). The luminescence recorded is proportional to the amount of ATP present in each well.
Apparent Ki for each compound were calculated from GSK3β Km value for ATP, applying the Cheng-Prusoff equation^10,11 in its simplified form: Ki = IC50/(1+([S]/Km)), in which S refers to the ATP concentration and Km is the Michaelis constant of the substrate for GSK3β.

[2] = test system: Nrf2; experiment: Nrf2-dependent luciferase reporter assay in AREc32 cell line; type: cell-based; details: for EC50: AREc32 cells, read-out: CD (concentration required to double the luciferase reporter activity)
Procedure: Thereafter, we tested the ability of the compounds to induce the Nrf2 transcription factor. We used an Nrf2-dependent luciferase reporter assay in the AREc32 cell line[45]. Cells were cultured for 24 h and then treated with increasing concentrations of compounds 5a–t (0.3, 3, 10 and 30 μM), including the known inducer sulforaphane, containing an isothiocyanate motive as positive control.
AREc32 cells were plated in 96-well white plates (2 × 10^4 cells/well). After 24 h, cells were incubated with increasing concentrations of each compound in duplicate for 24 h. AREc32 cells express constitutively the plasmid pGL-8xARE that implements 8 copies of the EpRE sequences followed by luciferase reporter gen. Therefore, Nrf2 induction is related to the activation of EpRE sequences, expressing luciferase at the same extent as EpRE sequences are activated. The Luciferase Assay System (Promega E1500), was used according to provider protocol and luminescence was quantified in an Orion II microplate luminometer (Berthold, Germany). Fold induction of luciferase activity was normalized to basal conditions. Data are expressed as CD values, expressing the concentration required to double the luciferase activity. CD values are calculated from dose-response curves generated from fold induction of control conditions vs. inducer concentration and fitted by non-linear regression and data interpolated to 2-fold induction concentration.
Breast cancer cells stably transfected to express luciferase after EpRE sequences MCF-7/AREc32 named AREc32, were kindly provided by Dr. C. Roland Wolf (University of Dundee, UK).^14 AREc32 cells were maintained in DMEM with high glucose-glutamax, supplemented with 10 % FBS, 1 % penicillin-streptomycin (10,000 units), and geneticin (0.8 mg/ml G418) at 37 °C and in a 5 % CO2- air atmosphere.^14
AREc32 cells are constitutively transfected with the pGL-8xARE luciferase reporter gene, inserted after EpRE sequences. Thus, Nrf2 translocation to the nucleus induces the activation of the EpRE sequences, expressing their target phase II antioxidant genes, and expressing luciferase at the same extent.^15 AREc32 cells were plated in 96-well white plates (2X10^4 cells/well). After 24 h, cells were incubated with increasing concentrations of each compound in duplicate for 24 h (dissolved in DMSO to give a final 0.1 % vol/vol concentration of vehicle). Each plate included non-treated cells as basal luciferase expression and tBHQ (10 µM) as positive control. TBHQ is a potent Nrf2 inducer used as control in the development of the AREc32 cells.^14 Transfected clones are selected using G418. AREc32 cells express constitutively the plasmid pGL-8xARE that implements 8 copies of the EpRE sequences followed by a luciferase reporter gene. Therefore, the induction of Nrf2 is proportional to the activation of EpRE sequences, expressing luciferase at the same extent as EpRE sequences are activated. Luciferase production is then assessed by a bioluminescence assay. The Luciferase Assay System (Promega E1500), was used according to the Promega protocol and luminescence was quantified in an Orion II microplate luminometer (Berthold, Germany). Relative Light Units (RLU) were recorded for the contents of each well. Fold induction of luciferase activity was calculated by dividing the RLU obtained for the tests wells for each treatment by the average RLU obtained for the basal conditions. Data are expressed as CD values, expressing the concentration required to double the basal luciferase activity, used to quantify the Nrf2 induction potency. CD values are calculated from dose-response curves generated from fold induction of control conditions vs. inducer concentration and fitted by non-linear regression and data interpolated to value the 2-fold induction concentration, using GraphPad Prism software (San Diego, CA, USA).

[3] = test system: primary rat glial cells; experiment: ROS production in LPS-stimulated primary glial cultures (H2DCFDA); type: cell-based; details: Glial cell, 24 h pre-incubation, 18 h co-incubation with LPS, 3 h with fluorescent dye, read-out: IC50 ROS reduction
Description: Therefore, we envisaged the study of compounds 5a–t as potential anti-inflammatory agents. We used primary rat glial cells treated with lipopolysaccharide (LPS) to induce the production of nitrites and ROS as a model of glial activation. Nitrite production is directly proportional to the expression of the iNOS, that is over-expressed when LPS activates glial cells. ROS production is proportional to NOX activation after stimulation with LPS. Results are summarized in Table 2 as IC50s of nitrite production reduction and ROS production reduction. We have included sulforaphane as control in all experiments (see the Supporting Information).
Besides the increase in nitrite production, it is well known that LPS stimulation of microglia also induces the activation of NOX, which induces superoxide free radical production. In fact, this mechanism is synergistic with the expression of iNOS and the production of nitrites. In this respect, there is a body of evidence showing that NOX activation is a major contributor to ROS oxidative stress and neuronal death in AD[57][58]. […] In general, potency to reduce ROS production increased from ortho to para and meta as observed above.
(§1) Primary glial cells were cultured in bottom transparent 96-well black plates following standard protocol. Cells were pre-incubated with the corresponding compound at the selected concentrations, for 24 hours, and therafter, co-incubated with the corresponding compound and LPS (1 μM) during 18 h more. Then, treatments were removed and cells were loaded with the fluorescent probe 2′,7′-dichlorodihydrofluorescein diacetate (H2DCFDA) (10 μM) for 45 minutes in serum free glial culture medium. All experiments included cells treated with culture medium alone (basal). Cells were washed twice with culture medium and fluorescence intensity was recorded in a Fluostar Optima multiwall pate reader (BMG Labtech, Offenburg, Germany) at 485/520 nm as excitation and emission wavelengths respectively, each hour, during 3 hours period. Data were normalized with respect to basal conditions that were considered as 100%.
as §1, with “µM)” for “μM)”, “2',7'-dichlorodihydrofluorescein” for “2′,7′-dichlorodihydrofluorescein”
Mixed glial cultures were obtained from cerebral cortex of 2-5 day-old Sprague-Dawley rats. After removal of blood vessels and meninges, the forebrains were dissociated in DMEM/F12 medium. After mechanical dissociation, cells were plated (3x10^5 cells/ml) in DMEM/F12 medium with 20% fetal bovine serum (FBS) and 1 % penicillin/streptomycin (10,000 units), at 37 °C and in a 5 % CO2-supplemented air atmosphere. After 5 days, medium was substituted by DMEM/F12 medium with 10 % FBS. Cells were cultured for 7-10 days before treatment.

T1 sequence (P49841 whole entry): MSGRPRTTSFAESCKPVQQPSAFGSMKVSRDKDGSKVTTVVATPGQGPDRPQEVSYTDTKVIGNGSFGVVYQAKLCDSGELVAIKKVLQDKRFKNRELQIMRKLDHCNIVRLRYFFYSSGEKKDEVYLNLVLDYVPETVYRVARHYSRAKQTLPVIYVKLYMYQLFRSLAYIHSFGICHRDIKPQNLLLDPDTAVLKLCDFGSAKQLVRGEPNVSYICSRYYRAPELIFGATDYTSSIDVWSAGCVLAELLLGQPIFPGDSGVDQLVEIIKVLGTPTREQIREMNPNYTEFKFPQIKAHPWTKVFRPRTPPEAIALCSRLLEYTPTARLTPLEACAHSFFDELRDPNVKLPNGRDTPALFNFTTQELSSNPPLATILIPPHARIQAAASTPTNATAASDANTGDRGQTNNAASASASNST

In the case of Cc1[nH]nc2c1C(c1ccccc1)C(C#N)=C(N)O2 (centres unmarked) [Compound 5a, 6-Amino-3-methyl-4-phenyl-2,4-dihydropyrano[2,3-c]pyrazole-5-carbonitrile], the IC50 [1] is reported as over 30 µM, the EC50 ([2]; Arec32, 24 h) is reported as 20.5 ± 3.4 µM and the IC50 [3] is reported as over 60 µM.

COc1ccccc1C1C(C#N)=C(N)Oc2n[nH]c(C)c21 (centres unmarked) [Compound 5b, 6-Amino-4-(2-methoxyphenyl)-3-methyl-2,4-dihydropyrano[2,3-c]pyrazole-5-carbonitrile] gave a Ki [1] of 11.5 µM, an IC50 [1] of 16.4 ± 1.8 µM and an EC50 ([2]; Arec32, 24 h) of over 30 µM. It also gave an IC50 [3] of over 60 µM.

Work on COc1cccc(C2C(C#N)=C(N)Oc3n[nH]c(C)c32)c1 (centres unmarked) [Compound 5c, 6-Amino-4-(3-methoxyphenyl)-3-methyl-2,4-dihydropyrano[2,3-c]pyrazole-5-carbonitrile] yielded a Ki [1] of 5.04 µM, an IC50 [1] of 7.2 ± 0.7 µM and an EC50 ([2]; Arec32, 24 h) of 11.3 ± 1.3 µM. For the same molecule, the IC50 [3] was 18.1 ± 5.36 µM.

COc1ccc(C2C(C#N)=C(N)Oc3n[nH]c(C)c32)cc1 (centres unmarked) [Compound 5d, 6-Amino-4-(4-methoxyphenyl)-3-methyl-2,4-dihydropyrano[2,3-c]pyrazole-5-carbonitrile] was tested, and the Ki [1] was 4.63 µM, the IC50 [1] was 6.6 ± 1.7 µM and the EC50 ([2]; Arec32, 24 h) was 25.3 ± 2.4 µM. It also gave an IC50 [3] of 19.9 ± 4.89 µM.

With Cc1ccccc1C1C(C#N)=C(N)Oc2[nH]nc(C)c21 (centres unmarked) [Compound 5e, 6-Amino-3-methyl-4-(2-methylphenyl)-2,4-dihydropyrano[2,3-c]pyrazole-5-carbonitrile] the IC50 [1] was over 30 µM, the EC50 ([2]; Arec32, 24 h) was over 30 µM and the IC50 [3] was 60 ± 0.29 µM.

For Cc1cccc(C2C(C#N)=C(N)Oc3n[nH]c(C)c32)c1 (centres unmarked) [Compound 5f, 6-Amino-3-methyl-4-(3-methylphenyl)-2,4-dihydropyrano[2,3-c]pyrazole-5-carbonitrile], the Ki [1] was 15 µM, the IC50 [1] was 21.4 ± 4.6 µM and the EC50 ([2]; Arec32, 24 h) was 14.1 ± 2.1 µM. The IC50 [3] was 32.6 ± 6.79 µM.

With Cc1ccc(C2C(C#N)=C(N)Oc3[nH]nc(C)c32)cc1 (centres unmarked) [Compound 5g, 6-Amino-3-methyl-4-(4-methylphenyl)-2,4-dihydropyrano[2,3-c]pyrazole-5-carbonitrile] the Ki [1] was 12.3 µM, the IC50 [1] was 17.5 ± 1.9 µM and the EC50 ([2]; Arec32, 24 h) was 25.4 ± 2.5 µM. For the same molecule, the IC50 [3] was 45.1 ± 5.33 µM.

Cc1n[nH]c2c1C(c1ccc(F)cc1)C(C#N)=C(N)O2 (centres unmarked) [Compound 5h, 6-Amino-4-(4-fluorophenyl)-3-methyl-2,4-dihydropyrano[2,3-c]pyrazole-5-carbonitrile] showed a Ki [1] of 12.5 µM, an IC50 [1] of 17.9 ± 1.5 µM and an EC50 ([2]; Arec32, 24 h) of 14.6 ± 4 µM. For the same molecule, the IC50 [3] was 37 ± 4.32 µM.

Work on Cc1n[nH]c2c1C(c1ccccc1Cl)C(C#N)=C(N)O2 (centres unmarked) [Compound 5i, 6-Amino-4-(2-chlorophenyl)-3-methyl-2,4-dihydropyrano[2,3-c]pyrazole-5-carbonitrile] yielded an EC50 ([2]; Arec32, 24 h) of 23.5 ± 3.2 µM and an IC50 [3] of over 60 µM.

Cc1[nH]nc2c1C(c1cccc(Cl)c1)C(C#N)=C(N)O2 (centres unmarked) [Compound 5j, 6-Amino-4-(3-chlorophenyl)-3-methyl-2,4-dihydropyrano[2,3-c]pyrazole-5-carbonitrile] gave a Ki [1] of 14.4 µM, an IC50 [1] of 20.5 ± 8 µM and an EC50 ([2]; Arec32, 24 h) of 5.38 ± 0.5 µM. For the same molecule, the IC50 [3] was 24 ± 2.58 µM.

Cc1n[nH]c2c1C(c1ccc(Cl)cc1)C(C#N)=C(N)O2 (centres unmarked) [Compound 5k, 6-Amino-4-(4-chlorophenyl)-3-methyl-2,4-dihydropyrano[2,3-c]pyrazole-5-carbonitrile] showed a Ki [1] of 4.41 µM, an IC50 [1] of 6.29 ± 2.6 µM and an EC50 ([2]; Arec32, 24 h) of 8.31 ± 1.5 µM. It also gave an IC50 [3] of over 60 µM.

Cc1n[nH]c2c1C(c1ccccc1Br)C(C#N)=C(N)O2 (centres unmarked) [Compound 5l, 6-Amino-4-(2-bromophenyl)-3-methyl-2,4-dihydropyrano[2,3-c]pyrazole-5-carbonitrile] was tested, and the IC50 [1] was over 30 µM, the EC50 ([2]; Arec32, 24 h) was over 30 µM and the IC50 [3] was 38.6 ± 7.16 µM.

Cc1[nH]nc2c1C(c1ccc(Br)cc1)C(C#N)=C(N)O2 (centres unmarked) [Compound 5m, 6-Amino-4-(4-bromophenyl)-3-methyl-2,4-dihydropyrano[2,3-c]pyrazole-5-carbonitrile] was tested, and the Ki [1] was 2.64 µM, the IC50 [1] was 3.77 ± 2 µM and the “Luciferase activity increase alone versus in presence of Li (10 mM)” value ([2]; 3 μM to 30 μM, 24 h) was “to the same extent and without statistically significant differences”. It also gave an EC50 ([2]; 24 h) of 9.37 ± 1.4 µM, an EC50 ([2]; Arec32, 24 h) of under 10 µM and an IC50 [3] of 33.2 ± 7.36 µM.

In the case of Cc1[nH]nc2c1C(c1ccccc1[N+](=O)[O-])C(C#N)=C(N)O2 (centres unmarked) [Compound 5n, 6-Amino-3-methyl-4-(2-nitrophenyl)-2,4-dihydropyrano[2,3-c]pyrazole-5-carbonitrile], the Ki [1] is reported as 2.72 µM, the IC50 [1] is reported as 3.9 µM and 3.89 µM and the EC50 ([2]; Arec32, 24 h) is reported as 11.3 ± 5.5 µM. For the same molecule, the IC50 [3] was 19.9 ± 4.89 µM.

With Cc1[nH]nc2c1C(c1cccc([N+](=O)[O-])c1)C(C#N)=C(N)O2 (centres unmarked) [Compound 5o, 6-Amino-3-methyl-4-(3-nitrophenyl)-2,4-dihydropyrano[2,3-c]pyrazole-5-carbonitrile] the Ki [1] was 5.04 µM, the IC50 [1] was 7.2 ± 1.6 µM and the EC50 ([2]; Arec32, 24 h) was 18.9 ± 2.9 µM. It also gave an IC50 [3] of 30.8 ± 4.99 µM.

For Cc1[nH]nc2c1C(c1ccc([N+](=O)[O-])cc1)C(C#N)=C(N)O2 (centres unmarked) [Compound 5p, 6-Amino-3-methyl-4-(4-nitrophenyl)-2,4-dihydropyrano[2,3-c]pyrazole-5-carbonitrile], the Ki [1] was 11.4 µM, the IC50 [1] was 16.3 ± 2.8 µM and the EC50 ([2]; Arec32, 24 h) was 15 ± 4.3 µM. For the same molecule, the IC50 [3] was over 60 µM.

For Cc1n[nH]c2c1C(c1ccco1)C(C#N)=C(N)O2 (centres unmarked) [Compound 5q, 6-Amino-4-(furan-2-yl)-3-methyl-2,4-dihydropyrano[2,3-c]pyrazole-5-carbonitrile], the Ki [1] was 10.4 µM, the IC50 [1] was 14.8 ± 4.8 µM and the EC50 ([2]; Arec32, 24 h) was 25.2 ± 2.4 µM. The IC50 [3] was 22.5 ± 7.78 µM.
